Test results taken from patent US8865734B2 (priority 2010, dated 2014).
≈ marks a conversion by molar mass, not a printed value.

Key:
[1] = tested on: in vitro grown Mycobacteria (M. tuberculosis); test: QUM: Quantification of in vitro grown Mycobacteria (in vitro growth fluorescence assay); assay type: cell-based; settings: Mycobacterium tuberculosis; MIC, 80% bacterial growth inhibition; in vitro growth; read-out: QUM
In short: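 Mycobacterium tuberculosis grown in vitro was quantified by fluorescence across compound dose responses. MIC is defined as the minimum concentration producing 80% growth inhibition.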

[2] = tested on: M. tuberculosis inside the host macrophage; test: QIM: Quantification of Intracellular Mycobacteria (intracellular growth assay, phenotypic cell-based); settings: Mycobacterium tuberculosis; MIC, 80% bacterial growth inhibition; intracellular growth; read-out: QIM
In short: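 Phenotypic high-content assay measuring M. tuberculosis multiplication inside host macrophages, run as dose response. MIC is the minimum compound concentration giving 80% bacterial growth inhibition.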

Row | Structure (SMILES) | MIC [1] | MIC [2]
1 | CCc1nc2cc(Cl)c(Cl)cn2c1C(=O)NCc1ccc(N2CCN(c3ccc(F)cc3)CC2)cc1 [Compound 180, 6,7-Dichloro-2-ethyl-N-(4-(4-(4-fluorophenyl)piperazin-1-yl)benzyl)imidazo[1,2-a]pyridine-3-carboxamide] | < 1 µM | < 1 µM
2 | CCCCCC(=O)NCc1ccc(-c2ccc(CNC(=O)c3c(CC)nc4cc(Cl)ccn34)cc2)cc1 [Compound 184, 7-Chloro-2-ethyl-N-((4′-(hexanamidomethyl)biphenyl-4-yl)methyl)imidazo[1,2-a]pyridine-3-carboxamide] | < 1 µM | < 1 µM
3 | CCc1nc2cc(Cl)ccn2c1C(=O)NCc1ccc(Oc2ccc(F)cc2)cc1 [Compound 188, 7-Chloro-2-ethyl-N-(4-(4-fluorophenoxy)benzyl)imidazo[1,2-a]pyridine-3-carboxamide] | < 1 µM | < 1 µM
4 | CCc1nc2ccc(Br)cn2c1C(=O)NCc1ccc(Oc2ccc(F)cc2)cc1 [Compound 189, 6-Bromo-2-ethyl-N-(4-(4-fluorophenoxy)benzyl)imidazo[1,2-a]pyridine-3-carboxamide] | < 1 µM | < 1 µM
5 | CCc1nc2ccccn2c1C(=O)NCc1ccc(Oc2ccc(OC(F)(F)F)cc2)cc1 [Compound 192, 2-Ethyl-N-(4-(4-(trifluoromethoxy)phenoxy)benzyl)imidazo[1,2-a]pyridine-3-carboxamide] | < 1 µM | < 1 µM
6 | CCc1nc2cc(Cl)ccn2c1C(=O)NCc1ccc(Oc2ccc(OC(F)(F)F)cc2)nc1 [Compound 195, 7-Chloro-2-ethyl-N-((6-(4-(trifluoromethoxy)phenoxy)pyridin-3-yl)methyl)imidazo[1,2-a]pyridine-3-carboxamide] | 1 to 20 µM (≈ 0.491 to 9.82 µg/mL) | 1 to 20 µM (≈ 0.491 to 9.82 µg/mL)
7 | CCc1nc2ccc(Cl)cn2c1C(=O)N(C)Cc1ccc(Oc2ccc(F)cc2)cc1 [Compound 197, 6-Chloro-2-ethyl-N-(4-(4-fluorophenoxy)benzyl)-N-methylimidazo[1,2-a]pyridine-3-carboxamide] | 1 to 20 µM (≈ 0.438 to 8.76 µg/mL) | 1 to 20 µM (≈ 0.438 to 8.76 µg/mL)
8 | CCc1nc2ccc(Cl)cn2c1C(=O)NCc1ccc(Nc2ccc(OC(F)(F)F)cc2)cc1 [Compound 198, 6-Chloro-2-ethyl-N-(4-(4-(trifluoromethoxy)phenylamino)benzyl)imidazo[1,2-a]pyridine-3-carboxamide] | 1 to 20 µM (≈ 0.489 to 9.78 µg/mL) | < 1 µM
9 | CCc1nc2cc(Cl)ccn2c1C(=O)NCc1ccc(Nc2ccc(OC(F)(F)F)cc2)cc1 [Compound 199, 7-Chloro-2-ethyl-N-(4-(4-(trifluoromethoxy)phenylamino)benzyl)imidazo[1,2-a]pyridine-3-carboxamide] | < 1 µM | < 1 µM
10 | CCc1nc2ccc(Cl)cn2c1C(=O)NCc1ccc(OCc2ccc(F)cc2)cc1 [Compound 202, 6-Chloro-2-ethyl-N-(4-(4-fluorobenzyloxy)benzyl)imidazo[1,2-a]pyridine-3-carboxamide] | < 1 µM | < 1 µM
11 | CCc1nc2cc(Cl)ccn2c1C(=O)NCc1ccc(OCc2ccc(F)cc2)cc1 [Compound 203, 7-Chloro-2-ethyl-N-(4-(4-fluorobenzyloxy)benzyl)imidazo[1,2-a]pyridine-3-carboxamide] | 1 to 20 µM (≈ 0.438 to 8.76 µg/mL) | 1 to 20 µM (≈ 0.438 to 8.76 µg/mL)
12 | CCc1nc2ccc(Cl)cn2c1C(=O)NCc1ccc2[nH]c(-c3ccc(OC(F)(F)F)cc3)nc2c1 [Compound 204, 6-Chloro-2-ethyl-N-((2-(4-(trifluoromethoxy)phenyl)-1H-benzo[d]imidazol-5-yl)methyl) imidazo[1,2-a]pyridine-3-carboxamide] | > 20 µM | > 20 µM
13 | CCc1nc2cc(Cl)ccn2c1C(=O)NCc1ccc2[nH]c(-c3ccc(OC(F)(F)F)cc3)nc2c1 [Compound 205, 7-Chloro-2-ethyl-N-((2-(4-(trifluoromethoxy)phenyl)-1H-benzo[d]imidazol-5-yl)methyl) imidazo[1,2-a]pyridine-3-carboxamide] | > 20 µM | > 20 µM
14 | CCc1nc2cc(Cl)ccn2c1C(=O)NCc1ccc2[nH]c(CN3CCOCC3)nc2c1 [Compound 206, 7-Chloro-2-ethyl-N-((2-(morpholinomethyl)-1H-benzo[d]imidazol-5-yl)methyl) imidazo[1,2-a]pyridine-3-carboxamide] | > 20 µM | > 20 µM
15 | CCc1nc2ccc(Cl)cn2c1C(=O)NCc1ccc2oc(-c3ccc(OC(F)(F)F)cc3)nc2c1 [Compound 207, 6-Chloro-2-ethyl-N-((2-(4-(trifluoromethoxy)phenyl)benzo[d]oxazol-5-yl)methyl)imidazo[1,2-a]pyridine-3-carboxamide] | < 1 µM | < 1 µM
16 | CCc1nc2cc(Cl)ccn2c1C(=O)NCc1ccc2oc(-c3ccc(OC(F)(F)F)cc3)nc2c1 [Compound 208, 7-Chloro-2-ethyl-N-((2-(4-(trifluoromethoxy)phenyl)benzo[d]oxazol-5-yl)methyl)imidazo[1,2-a]pyridine-3-carboxamide] | < 1 µM | < 1 µM
17 | CCc1nc2cc(Cl)ccn2c1C(=O)NCc1ccc(N2CCCC2)cc1 [Compound 212, 7-Chloro-2-ethyl-N-(4-(pyrrolidin-1-yl)benzyl)imidazo[1,2-a]pyridine-3-carboxamide] | < 1 µM | < 1 µM
18 | CCc1nc2cc(Cl)ccn2c1C(=O)NCc1ccc(N2CC=CCC2)cc1 [Compound 213, 7-Chloro-N-(4-(5,6-dihydropyridin-1(2H)-yl)benzyl)-2-ethylimidazo[1,2-a]pyridine-3-carboxamide] | < 1 µM | 1 to 20 µM (≈ 0.395 to 7.9 µg/mL)
19 | CCc1nc2ccc(Cl)cn2c1C(=O)NCc1ccc(N2CCC(C)CC2)cc1 [Compound 214, 6-Chloro-2-ethyl-N-(4-(4-methylpiperidin-1-yl)benzyl)imidazo[1,2-a]pyridine-3-carboxamide] | < 1 µM | < 1 µM
20 | CCc1nc2cc(Cl)ccn2c1C(=O)NCc1ccc(N2CCC(C)CC2)cc1 [Compound 215, 7-Chloro-2-ethyl-N-(4-(4-methylpiperidin-1-yl)benzyl)imidazo[1,2-a]pyridine-3-carboxamide] | < 1 µM | < 1 µM
21 | CCc1nc2ccc(Cl)cn2c1C(=O)NCc1ccc(N2CCCCCC2)cc1 [Compound 221, N-(4-(Azepan-1-yl)benzyl)-6-chloro-2-ethylimidazo[1,2-a]pyridine-3-carboxamide] | < 1 µM | < 1 µM
22 | CCc1nc2cc(Cl)ccn2c1C(=O)NCc1ccc(N2CCCCCC2)cc1 [Compound 222, N-(4-(Azepan-1-yl)benzyl)-7-chloro-2-ethylimidazo[1,2-a]pyridine-3-carboxamide] | < 1 µM | < 1 µM
23 | CCc1nc2ccc(Cl)cn2c1C(=O)N1CCC(OCc2ccc(OC(F)(F)F)cc2)CC1 [Compound 230, (6-Chloro-2-ethylimidazo[1,2-a]pyridin-3-yl)(4-(4-(trifluoromethoxy)benzyloxy)piperidin-1-yl)methanone] | > 20 µM | > 20 µM
24 | CCc1nc2ccc(Cl)cn2c1C(=O)NCc1ccn(-c2ccc(OC(F)(F)F)cc2)n1 [Compound 231, 6-Chloro-2-ethyl-N-((1-(4-(trifluoromethoxy)phenyl)-1H-pyrazol-3-yl)methyl) imidazo[1,2-a]pyridine-3-carboxamide] | < 1 µM | < 1 µM
